According to PubChem BioAssay (NCI):
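Step 1: Grow cells in 96-well plates. Step 2: Expose to compound for 48 hours at 5 concentrations. Step 3: Interpolate endpoints linearly; if unreached, use highest concentration. At the TGI there is no net growth.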

How the values were obtained:
Test in all cases: NCI tumour cell line growth inhibition, 48 h
786-0 renal = system: 786-0 renal
A498 renal = system: A498 renal
A549 NSCLC = system: A549 NSCLC
ACHN renal = system: ACHN renal
CAKI-1 renal = system: CAKI-1 renal
CCRF-CEM leukemia = system: CCRF-CEM leukemia
COLO 205 colon = system: COLO 205 colon
DLD-1 colon = system: DLD-1 colon
DMS 114 small cell lung = system: DMS 114 small cell lung
DMS 273 small cell lung = system: DMS 273 small cell lung
EKVX NSCLC = system: EKVX NSCLC
HCC-2998 colon = system: HCC-2998 colon
HCT-116 colon = system: HCT-116 colon
HCT-15 colon = system: HCT-15 colon
HL-60(TB) leukemia = system: HL-60(TB) leukemia
HOP-18 NSCLC = system: HOP-18 NSCLC
HT29 colon = system: HT29 colon
IGROV1 ovarian = system: IGROV1 ovarian
K-562 leukemia = system: K-562 leukemia
KM12 colon = system: KM12 colon
KM20L2 colon = system: KM20L2 colon
LOX IMVI melanoma = system: LOX IMVI melanoma
LXFL 529 NSCLC = system: LXFL 529 NSCLC
M14 melanoma = system: M14 melanoma
M19-MEL melanoma = system: M19-MEL melanoma
MALME-3M melanoma = system: MALME-3M melanoma
MOLT-4 leukemia = system: MOLT-4 leukemia
NCI-H226 lung = system: NCI-H226 lung
NCI-H23 lung = system: NCI-H23 lung
NCI-H460 lung = system: NCI-H460 lung
NCI-H522 lung = system: NCI-H522 lung
OVCAR-3 ovarian = system: OVCAR-3 ovarian
OVCAR-4 ovarian = system: OVCAR-4 ovarian
OVCAR-5 ovarian = system: OVCAR-5 ovarian
OVCAR-8 ovarian = system: OVCAR-8 ovarian
RPMI-8226 leukemia = system: RPMI-8226 leukemia
SF-268 CNS = system: SF-268 CNS
SF-295 CNS = system: SF-295 CNS
SF-539 CNS = system: SF-539 CNS
SK-MEL-2 melanoma = system: SK-MEL-2 melanoma
SK-MEL-5 melanoma = system: SK-MEL-5 melanoma
SK-OV-3 ovarian = system: SK-OV-3 ovarian
SN12C renal = system: SN12C renal
SNB-19 CNS = system: SNB-19 CNS
SNB-78 CNS = system: SNB-78 CNS
SW-620 colon = system: SW-620 colon
TK-10 renal = system: TK-10 renal
U251 CNS = system: U251 CNS
UACC-257 melanoma = system: UACC-257 melanoma
UACC-62 melanoma = system: UACC-62 melanoma
UO-31 renal = system: UO-31 renal
XF 498 CNS = system: XF 498 CNS
BT-549 breast = system: BT-549 breast
DU-145 prostate = system: DU-145 prostate
HOP-62 NSCLC = system: HOP-62 NSCLC
HOP-92 NSCLC = system: HOP-92 NSCLC
HS 578T breast = system: HS 578T breast
MCF7 breast = system: MCF7 breast
MDA-MB-231 breast = system: MDA-MB-231 breast
MDA-MB-435 = system: MDA-MB-435
MDA-N = system: MDA-N
NCI/ADR-RES ovarian = system: NCI/ADR-RES ovarian
PC-3 prostate = system: PC-3 prostate
RXF 393 renal = system: RXF 393 renal
SK-MEL-28 melanoma = system: SK-MEL-28 melanoma
SNB-75 CNS = system: SNB-75 CNS
SR leukemia = system: SR leukemia
T-47D breast = system: T-47D breast

Measured: TGI

Cc1cc(Cl)ccc1NC(=O)CCCC(=O)C1CCCC1=O (stereo unspecified)
> 100 µM: 786-0 renal | A498 renal | A549 NSCLC | ACHN renal | CAKI-1 renal | CCRF-CEM leukemia | COLO 205 colon | DLD-1 colon | DMS 114 small cell lung | DMS 273 small cell lung | EKVX NSCLC | HCC-2998 colon | HCT-116 colon | HCT-15 colon | HL-60(TB) leukemia | HOP-18 NSCLC | HT29 colon | IGROV1 ovarian | K-562 leukemia | KM12 colon | KM20L2 colon | LOX IMVI melanoma | LXFL 529 NSCLC | M14 melanoma | M19-MEL melanoma | MALME-3M melanoma | MOLT-4 leukemia | NCI-H226 lung | NCI-H23 lung | NCI-H460 lung | NCI-H522 lung | OVCAR-3 ovarian | OVCAR-4 ovarian | OVCAR-5 ovarian | OVCAR-8 ovarian | RPMI-8226 leukemia | SF-268 CNS | SF-295 CNS | SF-539 CNS | SK-MEL-2 melanoma | SK-MEL-5 melanoma | SK-OV-3 ovarian | SN12C renal | SNB-19 CNS | SNB-78 CNS | SW-620 colon | TK-10 renal | U251 CNS | UACC-257 melanoma | UACC-62 melanoma | UO-31 renal | XF 498 CNS

CC(=O)O[C@H]1CC[C@H]2[C@@H]3CCC4C(C)=NNC(=O)C4[C@H]3CC[C@]12C (stereo partly specified)
> 86.7 µM: NCI-H522 lung
57.6 µM: HOP-62 NSCLC
64.2 µM: HS 578T breast
> 75.4 µM: LOX IMVI melanoma
> 82.8 µM: MDA-MB-231 breast
33.7 µM: SNB-75 CNS
> 79.4 µM: IGROV1 ovarian
> 69.7 µM: BT-549 breast
> 100 µM: 786-0 renal | A498 renal | A549 NSCLC | ACHN renal | CAKI-1 renal | CCRF-CEM leukemia | COLO 205 colon | DU-145 prostate | EKVX NSCLC | HCC-2998 colon | HCT-116 colon | HCT-15 colon | HL-60(TB) leukemia | HOP-92 NSCLC | HT29 colon | K-562 leukemia | KM12 colon | M14 melanoma | MALME-3M melanoma | MCF7 breast | MDA-MB-435 | MDA-N | MOLT-4 leukemia | NCI-H226 lung | NCI-H23 lung | NCI-H460 lung | NCI/ADR-RES ovarian | OVCAR-3 ovarian | OVCAR-4 ovarian | OVCAR-5 ovarian | OVCAR-8 ovarian | PC-3 prostate | RPMI-8226 leukemia | RXF 393 renal | SF-268 CNS | SF-295 CNS | SF-539 CNS | SK-MEL-2 melanoma | SK-MEL-28 melanoma | SK-MEL-5 melanoma | SK-OV-3 ovarian | SN12C renal | SR leukemia | SW-620 colon | T-47D breast | TK-10 renal | U251 CNS | UACC-257 melanoma | UACC-62 melanoma | UO-31 renal
> 82.9 µM: SNB-19 CNS
